Data: patent publication US11787785B2 (NOVARTIS AG, priority 2021, dated 2023)

Biological target: T1, WIZ protein (HiBit-WIZ fusion protein) (Homo sapiens, UniProt O95785+Q96SW2)
T1 construct: expressed in transfected cells
Test: Quantification of WIZ protein levels in HiBit tag fusion protein assay (WIZ HiBit assay in 293T cells)
Type: cell-based
Settings: for Dmax at 25 µM / remaining activity at 25 µM: HEK-293T, 293T cells; for Dmax at 25 µM: 100 − Amax, read-out: % degradation of WIZ (100 − Amax); for remaining activity at 25 µM: DMSO-normalized, curve-fitted percentage of WIZ-HiBit remaining at 25 uM, read-out: WIZ Amax; for DC50: WIZ HiBit assay in 293T cells, 10-point, 5-fold dose response, highest concentration 25 μM, about 18 hours, read-out: WIZ AC50
Procedure: The HiBit system from Promega was used to develop high-throughput and quantitative assays to measure changes in WIZ protein levels in response to compounds. The HiBit tag was derived from a split Nanoluciferase and has the following protein sequence: […] (SEQ ID NO: 1). The complementary fragment of Nanoluciferase (known as LgBit, from Promega), was added to the HiBit tag to form an active Nanoluciferase enzyme whose activity can be precisely measured. In this way, the levels of a fusion protein with the HiBit tag can be quantified in cell lysates.
Lentiviral vectors, based on the Invitrogen™ pLenti6.2/V5 DEST backbone were constructed that places the HiBit tag upstream of WIZ and expressed the fusion protein from an HSVTK promotor.
To ensure moderate and consistent expression of the HiBit-WIZ fusion protein across all cells in the population, stable cell lines were constructed from cells harboring a single copy of the construct. Lentivirus packaged with the constructs were made using the ViraPower™ kit from Invitrogen™. 293T cells from ATCC (Catalog number: CRL-3216), were infected with the virus at low multiplicity of infection and selected by 5 μg/mL blasticidin in culture media for 2 weeks.
The levels of HiBit-WIZ tagged fusion proteins in compound-treated cell lines were measured as follows:
On day 1, cells were diluted to 1.0×10^6 cells/ml in normal growth medium. 20 μL of cell suspension were plated in each well of a solid white 384-well plate. Plates were incubated overnight in a 37° C. and 5% CO2 humidified tissue culture incubator.
On day 2, serial dilutions of compounds were made in 384-well plates. Compound plates were set up with DMSO in columns 1, 2, 23, 24, and 10-point compound dilution series in column 3-12 and column 13-22. 10 mM stock solution of compound were placed into column 3 or 13 and a 1:5 serial dilution was carried out until there was a 10-point dilution series per compound. 50 nL of diluted compounds were transferred into the plated cells by Echo® (Labcyte) acoustic transfer. The highest concentration of compound was 25 μM. Plates were incubated overnight (about 18 hours) in a 37° C. and 5% CO2 humidified tissue culture incubator.
On day 3, plates were removed from the incubator and allowed to equilibrate at room temperature for 60 minutes. HiBit substrate (Nano-Glo® HiBit Lytic Detection System, Promega Catalogue number: N3050) was added as described by the manufacturers protocols. Plates were incubated at room temperature for 30 minutes and luminescence was read using an EnVision® reader (PerkinElmer®). Data was analyzed and visualized using the Spotfire® software package.
WIZ Degradation Activity of Compounds (Table 1)
WIZ Amax reflects the DMSO-normalized, curve-fitted percentage of WIZ-HiBit remaining at 25 uM. It was calculated by normalizing […] controls to 100%, parametric curve fitting of the dose response data (10-point, 5-fold), followed by calculation of response at 25 uM using the fitted equation (nd=not determined).

T1 sequence (O95785 whole entry, the tested form may be a part): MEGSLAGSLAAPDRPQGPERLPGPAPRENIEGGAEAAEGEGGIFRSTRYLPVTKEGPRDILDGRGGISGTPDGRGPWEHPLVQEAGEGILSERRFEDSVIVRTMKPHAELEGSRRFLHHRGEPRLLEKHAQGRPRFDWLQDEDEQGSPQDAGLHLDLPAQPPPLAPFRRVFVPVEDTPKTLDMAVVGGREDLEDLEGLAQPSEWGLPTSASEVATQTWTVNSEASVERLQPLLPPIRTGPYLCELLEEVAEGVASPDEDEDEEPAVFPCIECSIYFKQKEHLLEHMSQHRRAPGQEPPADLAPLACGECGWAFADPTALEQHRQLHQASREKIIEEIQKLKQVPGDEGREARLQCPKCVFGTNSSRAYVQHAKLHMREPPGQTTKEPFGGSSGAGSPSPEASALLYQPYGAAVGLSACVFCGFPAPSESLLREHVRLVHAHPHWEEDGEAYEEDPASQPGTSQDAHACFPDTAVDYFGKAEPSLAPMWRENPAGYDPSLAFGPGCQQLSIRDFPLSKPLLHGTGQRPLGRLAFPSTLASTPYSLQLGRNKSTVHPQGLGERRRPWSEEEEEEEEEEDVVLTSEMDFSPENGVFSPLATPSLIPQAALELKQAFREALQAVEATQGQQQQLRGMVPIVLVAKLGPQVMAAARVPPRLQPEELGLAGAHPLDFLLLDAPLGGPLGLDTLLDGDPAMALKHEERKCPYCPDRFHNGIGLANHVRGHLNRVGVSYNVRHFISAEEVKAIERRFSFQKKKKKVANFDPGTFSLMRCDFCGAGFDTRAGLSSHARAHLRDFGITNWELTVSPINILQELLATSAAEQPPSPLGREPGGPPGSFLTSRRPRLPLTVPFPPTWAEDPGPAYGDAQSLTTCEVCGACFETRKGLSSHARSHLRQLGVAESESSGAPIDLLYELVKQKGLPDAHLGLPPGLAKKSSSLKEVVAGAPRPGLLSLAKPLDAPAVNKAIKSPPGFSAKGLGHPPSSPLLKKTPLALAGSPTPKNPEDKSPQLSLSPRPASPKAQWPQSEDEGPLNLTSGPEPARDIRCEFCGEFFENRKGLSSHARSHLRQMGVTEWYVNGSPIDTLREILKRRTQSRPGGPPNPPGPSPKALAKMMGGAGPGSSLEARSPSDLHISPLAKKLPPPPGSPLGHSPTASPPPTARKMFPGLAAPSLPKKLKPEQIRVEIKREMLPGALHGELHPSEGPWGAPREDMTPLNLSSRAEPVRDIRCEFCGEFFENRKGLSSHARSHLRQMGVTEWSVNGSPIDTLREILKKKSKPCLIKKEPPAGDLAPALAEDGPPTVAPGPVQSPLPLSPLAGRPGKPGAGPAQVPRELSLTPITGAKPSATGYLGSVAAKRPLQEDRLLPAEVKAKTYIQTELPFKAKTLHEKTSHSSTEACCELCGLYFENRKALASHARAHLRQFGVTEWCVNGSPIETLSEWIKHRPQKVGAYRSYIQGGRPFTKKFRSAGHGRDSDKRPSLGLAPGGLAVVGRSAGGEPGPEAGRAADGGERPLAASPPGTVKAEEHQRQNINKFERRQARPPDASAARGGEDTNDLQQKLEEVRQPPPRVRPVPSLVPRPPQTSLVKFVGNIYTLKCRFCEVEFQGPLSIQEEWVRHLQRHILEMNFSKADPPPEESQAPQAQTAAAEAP
T1 sequence (Q96SW2 whole entry, the tested form may be a part): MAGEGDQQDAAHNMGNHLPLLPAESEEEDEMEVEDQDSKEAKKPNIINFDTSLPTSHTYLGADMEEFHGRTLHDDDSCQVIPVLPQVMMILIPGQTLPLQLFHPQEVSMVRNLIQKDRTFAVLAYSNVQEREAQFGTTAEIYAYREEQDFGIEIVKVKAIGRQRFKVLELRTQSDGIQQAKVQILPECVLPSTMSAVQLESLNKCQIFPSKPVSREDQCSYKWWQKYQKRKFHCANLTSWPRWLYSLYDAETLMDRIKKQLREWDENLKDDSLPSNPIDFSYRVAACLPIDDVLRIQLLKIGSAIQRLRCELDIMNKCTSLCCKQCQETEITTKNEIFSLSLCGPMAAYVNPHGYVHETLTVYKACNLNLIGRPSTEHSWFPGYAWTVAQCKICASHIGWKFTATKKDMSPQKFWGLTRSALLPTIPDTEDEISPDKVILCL
T1 sequence (Q16531 whole entry partner, the tested form may be a part): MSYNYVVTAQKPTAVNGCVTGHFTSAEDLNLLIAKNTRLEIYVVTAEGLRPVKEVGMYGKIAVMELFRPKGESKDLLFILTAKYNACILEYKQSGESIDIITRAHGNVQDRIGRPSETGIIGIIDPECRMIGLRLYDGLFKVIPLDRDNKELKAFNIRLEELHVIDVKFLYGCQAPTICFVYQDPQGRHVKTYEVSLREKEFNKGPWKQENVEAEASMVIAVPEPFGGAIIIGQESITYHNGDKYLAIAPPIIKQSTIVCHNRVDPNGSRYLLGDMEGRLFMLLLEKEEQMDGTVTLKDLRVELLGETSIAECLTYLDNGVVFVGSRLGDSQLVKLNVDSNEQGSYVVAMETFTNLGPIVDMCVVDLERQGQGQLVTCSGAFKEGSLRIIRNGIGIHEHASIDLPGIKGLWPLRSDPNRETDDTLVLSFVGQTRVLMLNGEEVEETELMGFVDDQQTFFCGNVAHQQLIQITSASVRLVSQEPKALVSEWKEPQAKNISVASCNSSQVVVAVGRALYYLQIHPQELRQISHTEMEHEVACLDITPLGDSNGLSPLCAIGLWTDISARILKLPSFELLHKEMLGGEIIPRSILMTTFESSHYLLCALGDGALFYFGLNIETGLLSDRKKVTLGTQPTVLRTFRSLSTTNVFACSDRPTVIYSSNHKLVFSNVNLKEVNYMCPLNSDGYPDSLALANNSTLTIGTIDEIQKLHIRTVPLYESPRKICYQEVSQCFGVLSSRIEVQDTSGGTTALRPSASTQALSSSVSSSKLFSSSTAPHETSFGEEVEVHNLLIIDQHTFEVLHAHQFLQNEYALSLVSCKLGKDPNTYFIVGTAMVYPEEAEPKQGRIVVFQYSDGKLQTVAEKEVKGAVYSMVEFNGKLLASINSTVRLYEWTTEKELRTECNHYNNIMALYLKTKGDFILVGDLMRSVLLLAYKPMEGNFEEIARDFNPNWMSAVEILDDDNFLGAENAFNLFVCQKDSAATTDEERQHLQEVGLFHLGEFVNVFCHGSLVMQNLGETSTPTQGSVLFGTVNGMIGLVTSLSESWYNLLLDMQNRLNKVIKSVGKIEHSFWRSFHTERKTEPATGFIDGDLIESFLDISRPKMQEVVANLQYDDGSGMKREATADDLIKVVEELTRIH

Molecule CO[C@H]1C[C@@H](CN2CCN(Cc3ccn4ncc(N5CCC(=O)NC5=O)c4c3)C[C@@H]2C)C1 [Example 317, 1-(5-(((S)-4-(((1s,3R)-3-methoxycyclobutyl)methyl)-3-methylpiperazin-1-yl)methyl)pyrazolo[1,5-a]pyridin-3-yl)dihydropyrimidine-2,4(1H,3H)-dione] has a Dmax at 25 µM of 80%, a remaining activity at 25 µM of 20% and a DC50 of 31 nM.

C=C(C)CN1CCC(Cc2ccn3ncc(N4CCC(=O)NC4=O)c3c2)CC1 [Example 39a, 1-(5-((1-(2-methylallyl)piperidin-4-yl)methyl)pyrazolo[1,5-a]pyridin-3-yl)dihydropyrimidine-2,4(1H,3H)-dione] was tested, and the Dmax at 25 µM was 68%, the remaining activity at 25 µM was 32% and the DC50 was 87 nM.

CC(C)(F)CN1CCN(Cc2ccn3ncc(N4CCC(=O)NC4=O)c3c2)CC1 [Example 169] gave a Dmax at 25 µM of 55%, a remaining activity at 25 µM of 45% and a DC50 of 326 nM.

In the case of CCCN1CCN(Cc2ccn3ncc(N4CCC(=O)NC4=O)c3c2)CC1 [Example 163], the Dmax at 25 µM is reported as 76%, the remaining activity at 25 µM is reported as 24% and the DC50 is reported as 561 nM.

With O=C1CCN(c2cnn3ccc(CC4(F)CCN(CC5CCCCC5)CC4)cc23)C(=O)N1 [Example 123, 1-(5-((1-(cyclohexylmethyl)-4-fluoropiperidin-4-yl)methyl)pyrazolo[1,5-a]pyridin-3-yl)dihydropyrimidine-2,4(1H,3H)-dione] the Dmax at 25 µM was 68%, the remaining activity at 25 µM was 32% and the DC50 was 95 nM.

For O=C1CCN(c2cnn3ccc(CC4CCN(C5COC5)CC4)cc23)C(=O)N1 [Example 281, 1-(5-((1-(oxetan-3-yl)piperidin-4-yl)methyl)pyrazolo[1,5-a]pyridin-3-yl)dihydropyrimidine-2,4(1H,3H)-dione], the Dmax at 25 µM was 83%, the remaining activity at 25 µM was 17% and the DC50 was 4 nM.

Work on CC(C)CN1CCN(Cc2ccn3ncc(N4CCC(=O)NC4=O)c3c2)C[C@@H]1C(F)F [Example 247, (R)-1-(5-((3-(difluoromethyl)-4-isobutylpiperazin-1-yl)methyl)pyrazolo[1,5-a]pyridin-3-yl)dihydropyrimidine-2,4(1H,3H)-dione] yielded a Dmax at 25 µM of 15%, a remaining activity at 25 µM of 85% and a DC50 of 1370 nM.

Molecule C[C@H]1CN(Cc2ccn3ncc(N4CCC(=O)NC4=O)c3c2)CCN1C(=O)C1CC1 [Example 340, (S)-1-(5-((4-(cyclopropanecarbonyl)-3-methylpiperazin-1-yl)methyl)pyrazolo[1,5-a]pyridin-3-yl)dihydropyrimidine-2,4(1H,3H)-dione] has a Dmax at 25 µM of 32%, a remaining activity at 25 µM of 68% and a DC50 of 862 nM.

With C[C@H]1C[C@H](Cc2ccn3ncc(N4CCC(=O)NC4=O)c3c2)CCN1S(=O)(=O)N(C)C [Example 292] the Dmax at 25 µM was 83%, the remaining activity at 25 µM was 17% and the DC50 was 11 nM.

CC(c1cccc(F)c1)N1CCC(Cc2ccn3ncc(N4CCC(=O)NC4=O)c3c2)CC1 (stereo not drawn) [Example 48, 1-(5-((1-(1-(3-fluorophenyl)ethyl)piperidin-4-yl)methyl)pyrazolo[1,5-a]pyridin-3-yl)dihydropyrimidine-2,4(1H,3H)-dione] gave a Dmax at 25 µM of 68%, a remaining activity at 25 µM of 32% and a DC50 of 61 nM.

In the case of O=C1CCN(c2cnn3ccc(CN4CCN(CC5CCOC5)CC4)cc23)C(=O)N1 (stereo not drawn) [Example 177], the Dmax at 25 µM is reported as 77%, the remaining activity at 25 µM is reported as 23% and the DC50 is reported as 106 nM.

Molecule C[C@H]1CN(Cc2ccn3ncc(N4CCC(=O)NC4=O)c3c2)CCN1C1CC2(C1)CN(C)C2 [Example 336, (S)-1-(5-((3-methyl-4-(2-methyl-2-azaspiro[3.3]heptan-6-yl)piperazin-1-yl)methyl)pyrazolo[1,5-a]pyridin-3-yl)dihydropyrimidine-2,4(1H,3H)-dione] has a Dmax at 25 µM of 76%, a remaining activity at 25 µM of 24% and a DC50 of 12000 nM.

In the case of C[C@H]1C[C@H](Cc2ccn3ncc(N4CCC(=O)NC4=O)c3c2)CCN1CC1CCCC1 [Example 144], the Dmax at 25 µM is reported as 87%, the remaining activity at 25 µM is reported as 13% and the DC50 is reported as 8 nM.

Molecule CO[C@H]1CC[C@H](CN2CCC(Cc3ccn4ncc(N5CCC(=O)NC5=O)c4c3)CC2)CC1 [Example 64, 1-(5-((1-(((1r,4r)-4-methoxycyclohexyl)methyl)piperidin-4-yl)methyl)pyrazolo[1,5-a]pyridin-3-yl)dihydropyrimidine-2,4(1H,3H)-dione] has a Dmax at 25 µM of 94%, a remaining activity at 25 µM of 6% and a DC50 of 43 nM.

Work on C[C@H]1CN(Cc2ccn3ncc(N4CCC(=O)NC4=O)c3c2)CCN1CC1CC1 [Example 321, (S)-1-(5-((4-(cyclopropylmethyl)-3-methylpiperazin-1-yl)methyl)pyrazolo[1,5-a]pyridin-3-yl)dihydropyrimidine-2,4(1H,3H)-dione] yielded a Dmax at 25 µM of 78%, a remaining activity at 25 µM of 22% and a DC50 of 67 nM.

In the case of C[C@H]1CN(Cc2ccn3ncc(N4CCC(=O)NC4=O)c3c2)CCN1C(=O)C1CCC1 [Example 344, (S)-1-(5-((4-(cyclobutanecarbonyl)-3-methylpiperazin-1-yl)methyl)pyrazolo[1,5-a]pyridin-3-yl)dihydropyrimidine-2,4(1H,3H)-dione], the Dmax at 25 µM is reported as 35%, the remaining activity at 25 µM is reported as 65% and the DC50 is reported as 1070 nM.

With O=C1CCN(c2cnn3ccc(CC4CCN(Cc5ccncc5)CC4)cc23)C(=O)N1 [Example 28, 1-(5-((1-(pyridin-4-ylmethyl)piperidin-4-yl)methyl)pyrazolo[1,5-a]pyridin-3-yl)dihydropyrimidine-2,4(1H,3H)-dione] the Dmax at 25 µM was 75%, the remaining activity at 25 µM was 25% and the DC50 was 105 nM.

With O=C1CCN(c2cnn3ccc(CC4CCN(CCC5CCCCC5)CC4)cc23)C(=O)N1 [Example 6, 1-(5-((1-(2-cyclohexylethyl)piperidin-4-yl)methyl)pyrazolo[1,5-a]pyridin-3-yl)dihydropyrimidine-2,4(1H,3H)-dione] the Dmax at 25 µM was 89%, the remaining activity at 25 µM was 11% and the DC50 was 13 nM.

In the case of CC(C)CN1CCN(Cc2ccn3ncc(-n4cc(C5CC5)c(=O)[nH]c4=O)c3c2)C[C@@H]1C [Example 361, (S)-5-cyclopropyl-1-(5-((4-isobutyl-3-methylpiperazin-1-yl)methyl)pyrazolo[1,5-a]pyridin-3-yl)pyrimidine-2,4(1H,3H)-dione], the Dmax at 25 µM is reported as 0%, the remaining activity at 25 µM is reported as 100% and the DC50 is reported as > 25000 nM.

O=C1CCN(c2cnn3ccc(CC4CCN(S(=O)(=O)C5CC5)CC4)cc23)C(=O)N1 [Example 89] showed a Dmax at 25 µM of 77%, a remaining activity at 25 µM of 23% and a DC50 of 285 nM.

Work on C[C@@H]1C[C@@H](Cc2ccn3ncc(N4CCC(=O)NC4=O)c3c2)CCN1CC1CCC(F)(F)CC1 [Example 155] yielded a Dmax at 25 µM of 85%, a remaining activity at 25 µM of 15% and a DC50 of 9 nM.

O=C1CCN(c2cnn3ccc(CN4CCN5CCOC[C@@H]5C4)cc23)C(=O)N1 [Example 264, (S)-1-(5-((hexahydropyrazino[2,1-c][1,4]oxazin-8(1H)-yl)methyl)pyrazolo[1,5-a]pyridin-3-yl)dihydropyrimidine-2,4(1H,3H)-dione] gave a Dmax at 25 µM of 64%, a remaining activity at 25 µM of 36% and a DC50 of 260 nM.

In the case of C[C@H]1C[C@H](Cc2ccn3ncc(N4CCC(=O)NC4=O)c3c2)CCN1C[C@H]1CC[C@H](C(F)(F)F)CC1 [Example 305, 1-(5-(((2S,4R)-2-methyl-1-(((1r,4S)-4-(trifluoromethyl)cyclohexyl)methyl)piperidin-4-yl)methyl)pyrazolo[1,5-a]pyridin-3-yl)dihydropyrimidine-2,4(1H,3H)-dione], the Dmax at 25 µM is reported as 85%, the remaining activity at 25 µM is reported as 15% and the DC50 is reported as 2 nM.

Molecule C[C@H]1C[C@@H](Cc2ccn3ncc(N4CCC(=O)NC4=O)c3c2)CCN1CC1CCOCC1 [Example 73] has a Dmax at 25 µM of 89%, a remaining activity at 25 µM of 11% and a DC50 of 3 nM.

Work on C[C@@H]1C[C@@H](Cc2ccn3ncc(N4CCC(=O)NC4=O)c3c2)CCN1CC1CCOCC1 [Example 154] yielded a Dmax at 25 µM of 78%, a remaining activity at 25 µM of 22% and a DC50 of 41 nM.
